Where two headings read alike, the source gives them in different places.
What was measured:
[1] = apparent pKa of ionizable lipid in lipid nanoparticle, TNS assay; type: physicochemical; conditions: for ΔpKa: difference of calculated and measured pKa; for pKa: TNS assay
Protocol: c Log D and c-pKa were calculated as noted above. The measured pKa of a lipid was determined as formulated in a lipid nanoparticle using the TNS assay as described in the following Example.
The apparent pKa of ionizable lipid in the lipid nanoparticle was determined using 6-(p-toluidino)-2-naphthalenesulfonic acid sodium salt (TNS salt, Toronto Research Chemicals, Toronto, ON, Canada). Lipid nanoparticles were diluted in 1×Dulbecco's PBS to a concentration of 1 mM total lipids. TNS salt was prepared as a 1 mg/mL stock solution in DMSO and then further diluted using distilled water to a working solution of 60 μg/mL ([…]). Diluted lipid nanoparticle samples were further diluted to 90 μM total lipids in 165 μL of buffered solution containing 10 mM HEPES, 10 mM MES, 10 mM ammonium acetate, 130 mM NaCl, and final TNS concentration of 1.33 μg/mL (4 μM) with the pH ranging from 3.5 to 12.2. Following pipette mixing and incubation at room temperature in the dark for 15 min, fluorescence intensity was measured at room temperature in a BioTek Synergy H1 plate reader using excitation and emission wavelengths of 321 and 445 nm, respectively. The fluorescence signal was blank subtracted and plotted as a function of the pH, then analyzed using a nonlinear (Boltzmann) regression analysis with the apparent pKa determined as the pH giving rise to half maximal fluorescence intensity as calculated by the Henderson-Hasselbalch equation.

[2] = ex vivo stability in mouse plasma; type: in vitro ADME; conditions: 37° C.; for ex vivo Mouse Plasm Stability % Remaining at 2 Hours: CD-1 mouse plasma, 1 μM lipid
Protocol: To determine the stability of the disclosed lipids in mouse plasma lipid stock solution was prepared by dissolution of the lipid in isopropanol at the concentration of 5 mg/mL. A requisite volume of the lipid-isopropanol solution was then diluted to 100 μM concentration at a total volume of 10.0 mL with 50:50 (v/v) ethanol/water. Ten microliters of this 100 μM solution was spiked into 10.0 mL of mouse plasma (BioIVT, Lot MSE394920, CD-1 mouse, anticoagulant: sodium heparin, not filtered) that was prewarmed to 37° C. and stirred at 50 rpm with a magnetic stir bar. The starting concentration of lipids in plasma was thus 1 μM. Aliquots (50 μL) were taken after 0, 15, 30, 45, 60, and 120 minutes, transferred to microcentrifuge tubes and quenched with three volumes (150 μL) of ice cold acetonitrile/methanol (4:1). Positive control incubations utilized the same plasma, with Benfluorex (1 μM) as the substrate with Labetalol (1.0 μgl) as the in situ disappearance. The quenched solutions were vortexed, centrifuged for 5 minutes at 13,000 rpm, and supernatant (100 μL) transferred to a 96-well plate and diluted with water (200 μL, 0.1% FA). After filtration through a 0.45 μm 96-well filtering plate, the filtrates were analyzed by LC-MS (Waters AQUITY I-class UPLC system, ThermoScientific Vanquish UPLC system consisting of a binary pump, autosampler, and column compartment, Waters Xevo G2-XS QT of mass spectrometer; Phenomenex F5, 1.7 μm, 2.1×50 mm column). Mobile phase A was 0.1% formic acid in water, and mobile phase B was 0.1% formic acid in acetonitrile. The flow rate was 0.6 mL/min. Elution gradient was as follows: time, 0.5 min: 20% B; 0.5-2 min: 20-100% B; 2-4.8 min: 100% B; 4.8-5.45 min: 100-20% B. Mass spectrometry was in positive scanning mode from 600-1100 m/z. The peak of the molecular ion of the lipids was integrated in extracted ion chromatography (XIC) using Xcalibur software (Thermo Fisher). The relative peak area compared to T=0, after normalization by the peak area of the internal standard, was used as the percentage of the lipid remaining at each time point. T1/2 values were calculated using the first-order decay model.

[3] = physical-chemical properties of CD5-targeted tLNP encapsulating mCherry mRNA; type: physicochemical; conditions: for Hydrodynamic diameter: anti-CD5 tLNP: ionizable lipid/DSPC/cholesterol/DMG-PEG 2000/DSPE-PEG2000-Maleimide 50:10:38.5:1.4:0.1
Text: CleanCap® mCherry 5-methoxyuridine (5moU) mRNA (L-7203) was purchased from TriLink. mRNA was encapsulated in LNP using a self-assembly process in which an aqueous solution of mRNA at pH=3.5 is rapidly mixed with a solution of lipids dissolved in ethanol, then followed by stepwise phosphate and Tris buffer dilution and TFF purification. LNP composition in this study was: ionizable cationic lipid/distearoylphosphatidylcholine/cholesterol/DMG-PEG 2000/distearoylphosphatidyl ethanolamine(DSPE)-PEG2000-Maleimide (50:10:38.5:1.4:0.1 mol/mol) and were encapsulated at an N/P ratio (the ratio of positively-chargeable […] amine (N=nitrogen) groups to negatively-charged nucleic acid phosphate (P) groups) at 6. The hydrodynamic diameter of the nanoparticles was measured by dynamic light scattering using a Zetasizer Nano ZS (Malvern Instruments Ltd., Malvern, UK) instrument.
Next, an anti-CD5 mAb was conjugated to the above LNP to generate tLNP. Purified rat anti-mouse CD5 antibody, clone 53-7.3 (BioLegend), was coupled to LNP via N-succinimidyl S-acetylthioacetate (SATA)-maleimide conjugation chemistry. Briefly, LNPs with DSPE-PEG(2000)-maleimide incorporated were formulated and stored at 4° C. on the day of conjugation. The antibody was modified with SATA (Sigma-Aldrich) to introduce sulfhydryl groups at accessible lysine residues allowing conjugation to maleimide. SATA was deprotected using 0.5 M hydroxylamine followed by removal of the unreacted components by G-25 Sephadex Quick Spin Protein columns (Roche Applied Science, Indianapolis, IN). The reactive sulfhydryl group on the antibody was then conjugated to maleimide moieties on the LNPs using thioether conjugation chemistry. Purification was performed using Sepharose CL-4B gel filtration columns (Sigma-Aldrich). tLNPs (LNPs conjugated with a targeting antibody) were frozen at −80° C. Others have conjugated antibody to free functionalized PEG-lipid and then incorporated the conjugated lipid into pre-formed LNP.
mRNA content was determined using a Quant-iT™ RiboGreen RNA assay kit (Invitrogen™). Encapsulation efficiency was calculated by determining the unencapsulated mRNA content by measuring the fluorescence intensity (Fi) upon the addition of RiboGreen reagent to the LNP and comparing this value to the total fluorescence intensity (Ft) of the RNA content that is obtained upon lysis of the LNPs by 1% Triton X-100, where % encapsulation=(Ft−Fi)/Ft x 100).
The particle size (hydrodynamic diameter) and polydispersity index of the targeted lipid nanoparticles were determined using dynamic light scattering (DLS) on a Malvern Zetasizer Nano ZS (Malvern Instruments, Worcestershire, UK). Size measurement was carried out in pH 7.4 Tris buffer at 25° C. in relevant disposable capillary cells. A non-invasive back scatter system (NIBS) with a scattering angle of 173° was used for size measurements.

[4] = ionizable lipid in tLNP, read-out: Measured pKa
[5] = measured, lipid formulated in a lipid nanoparticle, read-out: pKa

Compound `CCCCCCCCCC(=O)OCC(COC(=O)CCCCCCCCC)CC(=O)OCCN(CCOC(=O)CC(COC(=O)CCCCCCCCC)COC(=O)CCCCCCCCC)C(=O)NCCCN(C)C` [Compound A-2] has a ΔpKa [1] of 1.62, a pKa [1, 4] of 7.92 and a pKa [1, 5] of 7.92. The “ex vivo Mouse Plasm Stability % Remaining at 2 Hours” value [2] was 72%, the “Hydrodynamic diameter” value ([3]; DLS) was 105 nm and the “PDI (polydispersity index)” value ([3]; anti-CD5 tLNP, DLS) was 0.20. The “Encapsulation Efficiency” value ([3]; anti-CD5 tLNP, RiboGreen assay) was 99%.

`CCCCCCCCC(=O)OCC(COC(=O)CCCCCCCC)CC(=O)OCCN(CCOC(=O)CC(COC(=O)CCCCCCCC)COC(=O)CCCCCCCC)C(=O)OCCN(C)C` [Compound A-11] gave a ΔpKa [1] of 1.81, a pKa [1, 4] of 6.65 and a pKa [1, 5] of 6 to 7. The half-life at 1 μM ([2]; CD-1, mouse plasma) was < 10 h, the “ex vivo Mouse Plasm Stability % Remaining at 2 Hours” value [2] was 86% and the “Hydrodynamic diameter” value ([3]; DLS) was 93 nm.
